Read-outs that look alike come from different tables or passages of the source.
Tests used:
[1] = tested on: streptozotocin induced diabetic mice; test: Antidiabetic activity in streptozotocin induced diabetic mice; assay type: in vivo, Swiss albino mice; design: key to % Reduction Cholesterol / % Reduction Triglycerides / % Reduction Glucose: NR=No Reduction; settings: 50 mg/kg oral, 7 days, plasma, compared to control group; for inhibition in vivo at 50 mg/kg: Mus musculus, 168 h
Procedure: Swiss albino mice of either sex were used in the study at the age of 10 weeks. Diabetes was induced in animals by injecting streptozotocin by i.p. route at a dose of 200 mg/kg body weight. 48 hours after streptozotocin administration, the animals were kept for fasting for 6 hours and blood was collected and plasma separated and glucose was estimated. Animals showing greater than 200 mg/dl glucose levels were considered as diabetic and these animals were randomly distributed into various groups. The compounds listed in the table 3 were administered at a dose of 50 mg/kg body weight by oral route for 7 days. Later animals were fasted for 6 hours and blood was collected and plasma separated. Biochemical estimations like glucose, cholesterol and triglycerides were carried out using the plasma. The effect of compounds mentioned in the table was expressed in terms of percentage reduction in biochemical values as compared to control group.

[2] = tested on: TNF-α; test: TNF-α inhibition in LPS-challenged human PBMC; assay type: cell-based; settings: for inhibition at 1 µM / inhibition at 10 µM: Homo sapiens, PBMC, read-out: % Inhibition TNF alpha; for inhibition at 1 µM / inhibition at 10 µM / % Inhibition TNF alpha: LPS 100 ng/mL, 20 hours
Procedure: (§1) Human PBMC cells were cultured and incubated with compounds listed in table-4 at 1 and 10 μM concentrations. Cells (1×10^6/mL) were challenged with lipopolysaccharides (LPS) at a concentration of (100 ng/mL) for 20 hours. Cell supernatant was analyzed for the presence of TNF-α, IL-1β and IL-6 cytokines by antibody directed enzyme-linked immunoassay.

[3] = molecular target: T1, DPP IV (Homo sapiens, UniProt P27487); test: DPP IV assay (human plasma as source, H-gly-pro AMC substrate); assay type: biochemical; settings: compared to vehicle control
T1 construct: using human plasma as a source of DPP IV; from tissue; host or cells: human plasma
T1 sequence (P27487 39-766 limits assumed): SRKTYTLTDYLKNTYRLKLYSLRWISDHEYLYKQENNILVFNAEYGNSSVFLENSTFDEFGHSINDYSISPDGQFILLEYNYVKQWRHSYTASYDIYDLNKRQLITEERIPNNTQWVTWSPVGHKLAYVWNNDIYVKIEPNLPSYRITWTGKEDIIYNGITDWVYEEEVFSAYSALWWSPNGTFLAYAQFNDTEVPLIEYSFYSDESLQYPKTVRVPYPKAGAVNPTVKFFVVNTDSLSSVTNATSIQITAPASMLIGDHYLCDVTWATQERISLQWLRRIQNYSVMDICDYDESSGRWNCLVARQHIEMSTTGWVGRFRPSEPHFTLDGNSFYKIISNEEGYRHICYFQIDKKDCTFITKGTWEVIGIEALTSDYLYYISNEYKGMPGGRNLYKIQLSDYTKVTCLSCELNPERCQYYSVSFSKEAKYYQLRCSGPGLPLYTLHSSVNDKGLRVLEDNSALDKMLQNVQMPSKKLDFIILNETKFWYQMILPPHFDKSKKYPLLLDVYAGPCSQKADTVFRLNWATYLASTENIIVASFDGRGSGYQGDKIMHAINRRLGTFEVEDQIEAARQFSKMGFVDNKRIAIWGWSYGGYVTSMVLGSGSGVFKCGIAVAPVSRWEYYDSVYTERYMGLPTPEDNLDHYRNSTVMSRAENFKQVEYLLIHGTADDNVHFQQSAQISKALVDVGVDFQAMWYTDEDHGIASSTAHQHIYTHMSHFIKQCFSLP
Procedure: DPP IV assay is carried by using human plasma as a source of DPP IV. The compounds were incubated at a concentration of 1 and 10 μM in assay buffer containing DPP IV enzyme. The compounds were incubated for 1 hr and then the substrate H-gly-pro AMC was added and further incubated for 20 min and then the reaction was stopped on addition of 25% glacial acetic acid. The plates were read in a spectrofluorimeter to get RFU on setting excitation wavelength of 360 nm and emission wavelength of 460 nm. Percentage inhibition is calculated as compared to vehicle control.

[4] = tested on: IL-6; test: IL-6 inhibition in LPS-challenged human PBMC; assay type: cell-based; settings: for inhibition at 1 µM / inhibition at 10 µM: Homo sapiens, PBMC, LPS 100 ng/mL, 20 hours
Procedure: as §1

[5] = tested on: IL-1β; test: IL-1β inhibition in LPS-challenged human PBMC; assay type: cell-based; settings: for inhibition at 1 µM / inhibition at 10 µM: Homo sapiens, PBMC, read-out: % Inhibition IL1beta
Procedure: as §1

[6] = tested on: 3T3-L1 cells; test: Glucose uptake assay using 3T3-L1 cells; assay type: cell-based; settings: 1 μM, 72 hours, differentiated 3T3-L1 adipocytes, 14C deoxyglucose uptake; relative to BLX-1002
Procedure: 3T3-L1 cells were differentiated by the addition of differentiation cocktail (72 μg/ml insulin, 0.5 mM IBMX, 400 ng/ml Dexamethasone) for 4 days and later fed with media without differentation cocktail for 7-8 days. After differentiation the cells were incubated with the either reference compound BLX-1002 or compounds listed in the table 1 at 1 μM concentrations for 72 hours and carried out the glucose uptake assay for 10 min by the addition of KRP buffer supplemented with 2.5 μCi/ml ^14C deoxy glucose. Stimulation Index is defined as the amount of ^14C Deoxyglucose uptake induced by 1 μM of BLX-1002 incubated for 72 hrs in an assay condition as per protocol described above with differentiated 3T3-L1 adipocytes. Values of compounds mentioned in table-1 are with reference to stimulation index of reference compound BLX-1002.

[7] = read-out: % Reduction Triglycerides
[8] = at tested concentrations, statement in words

## CN1C(=O)OCC1Cc1ccc(Oc2ccc(CC3SC(=O)NC3=O)cc2C(F)(F)F)cc1 (stereo not shown) [Example 71, 4-{4-[(3-methyl-2-oxo-1,3-oxazolidin-4-yl)methyl]phenoxy)-3-(trifluoromethylbenzyl]-1,3-thiazolidine-2,4-dione]
[1]
  % Reduction Cholesterol: NR
  % Reduction Triglycerides: NR
[1]; read-out: % Reduction Glucose
  inhibition in vivo at 50 mg/kg: 49.9%

## CCN1C(=O)OCC1Cc1ccc(Oc2ccc(CC3C(=O)Nc4ccccc43)cc2C(F)(F)F)cc1 (stereo not shown) [Example 65]
[2]; 1 μM
  inhibition at 1 µM: 4.6%
[2]; 10 μM
  inhibition at 10 µM: 1.67%

## CN1C(=O)OCC1Cc1ccc(Oc2ccc(CC3C(=O)Nc4ccccc43)cc2C(F)(F)F)cc1 (stereo not shown) [Example 75]
[3]
  inhibition at 1 µM: 2.44%
  inhibition at 10 µM: 7.64%

## CCN1C(=O)OCC1Cc1ccc(Oc2ccc(/C=C3\C(=O)Nc4ccccc43)cc2C(F)(F)F)cc1 (stereo not shown) [Example 15]
[3]
  inhibition at 1 µM: 7.07%
  inhibition at 10 µM: 9.86%
[2]; 1 μM
  inhibition at 1 µM: 24.5%
[2]; 10 μM
  inhibition at 10 µM: 15.9%
[4]
  inhibition at 1 µM: 1.16%
[5]; 1 μM, LPS 100 ng/mL, 20 hours
  inhibition at 1 µM: 1.78%

## CN1CC(Cc2ccc(Oc3ccc(/C=C4/SC(=S)N(CC(=O)O)C4=O)cc3)cc2)OC1=O (stereo not shown) [Example 32, 3-methyl-5-(4-{4-[(E)-(3-aceticacid-4-oxo-2-thioxo-1,3-thiazolidin-5-ylidene)methyl]phenoxy}benzyl)-1,3-oxazolidin-2-one]
[6]
  Stimulation Index: 0.89

## CN1C(=O)OCC1Cc1ccc(Oc2ccc(CC3C(=O)Nc4ccccc43)cc2)cc1 (stereo not shown) [Example 64]
[2]; 1 μM
  inhibition at 1 µM: 9.43%
[2]; 10 μM
  inhibition at 10 µM: 15.6%
[5]; 1 μM, LPS 100 ng/mL, 20 hours
  inhibition at 1 µM: 8.77%
[5]; LPS 100 ng/mL, 20 hours
  inhibition at 10 µM: 25.9%

## CCN1C(=O)OCC1Cc1ccc(Oc2ccc(/C=C3/SC(=O)NC3=O)cc2)cc1 (stereo not shown) [Example 3, 5-(4-{4-[(3-ethyl-2-oxo-1,3-oxazolidin-4-yl)methyl]phenoxy}benzylidene)-1,3-thiazolidine-2,4-dione]
[1]
  % Reduction Cholesterol: NR
  % Reduction Glucose: NR
[1]; [7]
  inhibition in vivo at 50 mg/kg: 3.8%

## COc1cc(CC2C(=O)Nc3ccccc32)ccc1Oc1ccc(CC2COC(=O)N2C)cc1 (stereo not shown) [Example 67]
[2]; 1 μM
  inhibition at 1 µM: 20.9%
[2]; 10 μM
  inhibition at 10 µM: 34%
[4]
  inhibition at 10 µM: 2.12%
[5]; 1 μM, LPS 100 ng/mL, 20 hours
  inhibition at 1 µM: 12.1%
[5]; LPS 100 ng/mL, 20 hours
  inhibition at 10 µM: 20.9%

## CCN1C(=O)OCC1Cc1ccc(Oc2ccc(/C=C3\C(=O)Nc4ccccc43)cc2)cc1 (stereo not shown) [Example 5]
[2]; 1 μM
  inhibition at 1 µM: 1.72%
[2]; 10 μM
  inhibition at 10 µM: 9.77%

## CCN1C(=O)OCC1Cc1ccc(Oc2ccc(/C=C3\C(=O)Nc4ccccc43)cc2F)cc1 (stereo not shown) [Example 12]
[2]; 1 μM
  inhibition at 1 µM: 13.6%
[2]; 10 μM
  inhibition at 10 µM: 28.1%
[4]
  inhibition at 1 µM: 2.67%
  inhibition at 10 µM: 1.65%

## CN1C(=O)OCC1Cc1ccc(Oc2ccc(/C=C3/SC(=S)NC3=O)cc2)cc1 (stereo not shown) [Example 34, 3-methyl-4-(4-{4-[(4-oxo-2-thioxo-1,3-thiazolidin-5-ylidene)methyl]phenoxy}benzyl)-1,3-oxazolidin-2-one]
[3]
  inhibition at 1 µM: 9.52%
  inhibition at 10 µM: -0.7%
[1]
  % Reduction Cholesterol: NR
[1]; read-out: % Reduction Glucose
  inhibition in vivo at 50 mg/kg: 50.9%
[1]; [7]
  inhibition in vivo at 50 mg/kg: 73.4%

## CN1C(=O)OCC1Cc1ccc(Oc2ccc(/C=C3\C(=O)Nc4ccccc43)c(Cl)c2)cc1 (stereo not shown) [Example 16]
[2]; 1 μM
  inhibition at 1 µM: 6.6%

## CCN1C(=O)OCC1Cc1ccc(Oc2ccc(CC3SC(=O)NC3=O)cc2)cc1 (stereo not shown) [Example 62, 5-(4-{4-[(3-ethyl-2-oxo-1,3-oxazolidin-4-yl)methyl]phenoxy}benzyl)-1,3-thiazolidine-2,4-dione]
[1]
  % Reduction Cholesterol: NR
[1]; read-out: % Reduction Glucose
  inhibition in vivo at 50 mg/kg: 36.2%
[1]; [7]
  inhibition in vivo at 50 mg/kg: 24.7%

## CCN1C(=O)OCC1Cc1ccc(Oc2ccc(/C=C3/SC(=S)N(CC(=O)O)C3=O)cc2)cc1 (stereo not shown) [Example 37]
[1]
  % Reduction Cholesterol: NR
  % Reduction Triglycerides: NR
[1]; read-out: % Reduction Glucose
  inhibition in vivo at 50 mg/kg: 22.5%

## CN1C(=O)OCC1Cc1ccc(Oc2ccc(/C=C3/SC(=S)NC3=O)cc2Cl)cc1 (stereo not shown) [Example 40, 4-(4-{2-chloro-4-[(4-oxo-2-thioxo-1,3-thiazolidin-5-ylidene)methyl]phenoxy}benzyl)-3-methyl-1,3-oxazolidin-2-one]
[1]
  % Reduction Cholesterol: NR
[1]; read-out: % Reduction Glucose
  inhibition in vivo at 50 mg/kg: 34.2%
[1]; [7]
  inhibition in vivo at 50 mg/kg: 17.8%

## CN1C(=O)OCC1Cc1ccc(Oc2ccc(/C=C3\C(=O)Nc4ccccc43)cc2)cc1 (stereo not shown) [Example 4]
[2]; 1 μM
  inhibition at 1 µM: 8.77%
[2]; 10 μM
  inhibition at 10 µM: 2.85%
[5]; 1 μM, LPS 100 ng/mL, 20 hours
  inhibition at 1 µM: 1.55%
[5]; LPS 100 ng/mL, 20 hours
  inhibition at 10 µM: 10.7%

## CN1C(=O)OCC1Cc1ccc(Oc2ccc(CC3SC(=S)N(CC(=O)O)C3=O)cc2C(F)(F)F)cc1 (stereo not shown) [Example 86]
[1]
  % Reduction Cholesterol: NR
[1]; read-out: % Reduction Glucose
  inhibition in vivo at 50 mg/kg: 48.8%
[1]; [7]
  inhibition in vivo at 50 mg/kg: 15.5%

## CCN1C(=O)OCC1Cc1ccc(Oc2ccc(CC3C(=O)Nc4ccccc43)cc2F)cc1 (stereo not shown) [Example 66]
[4]
  inhibition at 1 µM: 3.58%

## O=C1NC(Cc2ccc(Oc3ccc(/C=C4/SC(=O)NC4=O)cc3F)cc2)CO1 (stereo not shown) [Example 31, 5-(3-fluoro-4-{4-[(2-oxo-1,3-oxazolidin-4-yl)methyl]phenoxy}benzylidene)-1,3-thiazolidine-2,4-dione]
[3]
  inhibition at 1 µM: 4.77%
  inhibition at 10 µM: 7.25%

## CCN1C(=O)OCC1Cc1ccc(Oc2ccc(/C=C3/SC(=S)NC3=O)cc2C(F)(F)F)cc1 (stereo not shown) [Example 59]
[3]
  inhibition at 1 µM: -1.26%
  inhibition at 10 µM: 12.4%

## CCN1C(=O)OCC1Cc1ccc(Oc2ccc(/C=C3\C(=O)Nc4ccccc43)cc2Cl)cc1 (stereo not shown) [Example 10]
[2]; 1 μM
  inhibition at 1 µM: 20.2%
[2]; 10 μM
  inhibition at 10 µM: 35%
[4]
  inhibition at 1 µM: 15.5%
  inhibition at 10 µM: 7.18%

## CN1C(=O)OCC1Cc1ccc(Oc2ccc(/C=C3/SC(=S)N(CC(=O)O)C3=O)cc2Cl)cc1 (stereo not shown) [Example 41, [4-oxo-5-(3-chloro-4-{4-[(3-methyl-2-oxo-1,3-oxazolidin-4-yl)methyl]phenoxy}benzylidene)-2-thioxo-1,3-thiazolidin-3-yl]acetic acid]
[1]
  % Reduction Cholesterol: NR
  % Reduction Triglycerides: NR
[1]; read-out: % Reduction Glucose
  inhibition in vivo at 50 mg/kg: 66.5%

## CN1C(=O)OCC1Cc1ccc(Oc2ccc(/C=C3/SC(=S)NC3=O)cc2C(F)(F)F)cc1 (stereo not shown) [Example 55]
[3]
  inhibition at 1 µM: 1.99%
  inhibition at 10 µM: 9.92%

## CCN1C(=O)OCC1Cc1ccc(Oc2ccc(CC3C(=O)Nc4ccccc43)cc2OC)cc1 (stereo not shown) [Example 69]
[2]; 1 μM
  inhibition at 1 µM: 35.2%
[2]; 10 μM
  inhibition at 10 µM: 50.6%
[2]; [8]
  inhibition of TNF-α production: can inhibit the production
[4]
  inhibition at 1 µM: 2.98%
  inhibition at 10 µM: 12.4%
[4]; [8]
  inhibition of IL-6 production: can inhibit the production
[5]; 1 μM, LPS 100 ng/mL, 20 hours
  inhibition at 1 µM: 33.3%
[5]; LPS 100 ng/mL, 20 hours
  inhibition at 10 µM: 39.7%
[5]; [8]
  inhibition of IL-1β production: can inhibit the production

## CN1C(=O)OCC1Cc1ccc(Oc2ccc(/C=C3/C(=O)Nc4ccccc43)cc2F)cc1 (stereo not shown) [Example 7]
[3]
  inhibition at 1 µM: 3.55%
  inhibition at 10 µM: 7.75%
[2]; 1 μM
  inhibition at 1 µM: 0.93%
[2]; 10 μM
  inhibition at 10 µM: 6.43%

## 5-(3-methoxy-4-{4-[(3-methyl-2-oxo-1,3-oxazolidin-4-yl)methyl]phenoxybenzylidene)-1,3-dihydro-2H-indol-2-one [Example 11]
[6]
  Stimulation Index: 1.12
[2]; 1 μM
  % Inhibition TNF alpha: 18.77%
[2]; 10 μM
  % Inhibition TNF alpha: 26.07%
[5]; 1 μM, LPS 100 ng/mL, 20 hours
  % Inhibition IL1beta: 17.10%
